Assay results from patent publication US20090221649A1, “Use of substituted 2-thio-3,5-dicyano-4-phenyl-6-aminopyridines for the treatment of reperfusion injury and reperfusion damage” (Bayer HealthCare AG, priority 2005, published 2009).
Entries after “also recorded” stand apart in the source; their conditions may differ.

Tests used:
[1] = Tolerability when given intravenously; assay type: in vivo
rabbit hearts (in vivo) = assay: Limitation of infarct size in rabbit hearts in vivo (open-chest rabbits), drug at reperfusion; set-up: species or system New Zealand White rabbits
Protocol: Rabbits (New Zealand White rabbits of either sex weighing 1.6 to 3.0 kg) were anesthetized with sodium pentobarbital (30 mg/kg) which was subsequently supplemented as needed. Positive pressure ventilation with 100% oxygen was instituted. The heart was exposed through a left thoracotomy and a ligature was passed under a coronary branch to create the ischemia. Drug was given intravenously in a dose of 10 μg/kg over 1 min starting 5 min prior to reperfusion and again 15 min after reperfusion. The heart was removed after 3 hr of reperfusion. The risk zone was stained with fluorescent microspheres, then the heart was sliced into 2 mm sections and the infarct size was determined by tetrazolium staining.
Postconditioning is an established cardioprotective intervention where the occluded artery is intermittently opened and closed for four 30-second cycles at the end of the ischemic insult.

isolated rabbit hearts = assay: Limitation of infarct size in isolated buffer-perfused rabbit hearts, drug at reperfusion
Protocol: The quantification of infarct size and experimental design followed the protocol described by Zhang et al., J Cardiovasc Pharmacol 42, 2003.
Hearts were quickly removed from anesthetized rabbits and perfused with Krebs buffer. […] The risk zone was stained with fluorescent microspheres, then the heart was sliced into 2 mm sections and the infarct size was visualized by tetrazolium staining. The drug was mixed with the perfusate at 50 μg/L starting 5 min prior to reperfusion and continuing for 55 min. […] Ischemic preconditioning is the most powerful cardioprotective intervention known but of no practical value clinically.

| Compound | tolerability [1] | infarct size limitation compared with postconditioning (rabbit hearts (in vivo); 10 μg/kg i.v. 5 min prior to and 15 min after reperfusion) | reduction of infarct size (rabbit hearts (in vivo); 10 μg/kg i.v. 5 min prior to and 15 min after reperfusion, 30 min regional ischemia, 3 hr reperfusion) [%] | adverse hemodynamic effects (rabbit hearts (in vivo); 10 μg/kg i.v., open-chest rabbits) | reduction of infarct size (isolated rabbit hearts; 50 μg/L in perfusate from 5 min prior to reperfusion for 55 min, 30 min ischemia, 2 hr reperfusion) [%] | protection compared with ischemic preconditioning (IPC) (isolated rabbit hearts; 50 μg/L, IPC = 5 min ischemia and 10 min reperfusion) | infarct size in % of risk area, untreated hearts in comparison to treated hearts (isolated rabbit hearts; 50 μg/L, p=0.032) |
| --- | --- | --- | --- | --- | --- | --- | --- |
| N#Cc1c(N)nc(SCC(N)=O)c(C#N)c1-c1ccc(OCC2CC2)cc1 [Compound B, 2-({6-Amino-3,5-dicyano-4-[4-(cyclopropylmethoxy)phenyl]pyridin-2-yl}thio)acetamide] | well tolerated | equivalent to postconditioning in its potency; also recorded: as effective as postconditioning | > 50 | No adverse hemodynamic effects | – | – | – |
| N#Cc1c(N)nc(SCC(N)=O)c(C#N)c1-c1ccc(O)cc1 [Compound A, 2-{[6-Amino-3,5-dicyano-4-(4-hydroxyphenyl)pyridin-2-yl]thio}acetamide] | – | – | – | – | ~50 | not as protective as ischemic preconditioning | significantly larger |
